Data published in patent publication US9751854B2 (Millennium Pharmaceuticals, Inc., priority 2014, dated 2017).

Molecular target: human VPS34 (Homo sapiens (Human), UniProt Q8NEB9)
Assay: Human VPS34 enzyme assay (Adapta TR-FRET ADP detection)
Type: biochemical
Design: Percent Inhibition: dose or concentration left out as unconfirmed
Conditions: for IC50: IC50 range class

Sequence of human VPS34 (Q8NEB9 whole entry): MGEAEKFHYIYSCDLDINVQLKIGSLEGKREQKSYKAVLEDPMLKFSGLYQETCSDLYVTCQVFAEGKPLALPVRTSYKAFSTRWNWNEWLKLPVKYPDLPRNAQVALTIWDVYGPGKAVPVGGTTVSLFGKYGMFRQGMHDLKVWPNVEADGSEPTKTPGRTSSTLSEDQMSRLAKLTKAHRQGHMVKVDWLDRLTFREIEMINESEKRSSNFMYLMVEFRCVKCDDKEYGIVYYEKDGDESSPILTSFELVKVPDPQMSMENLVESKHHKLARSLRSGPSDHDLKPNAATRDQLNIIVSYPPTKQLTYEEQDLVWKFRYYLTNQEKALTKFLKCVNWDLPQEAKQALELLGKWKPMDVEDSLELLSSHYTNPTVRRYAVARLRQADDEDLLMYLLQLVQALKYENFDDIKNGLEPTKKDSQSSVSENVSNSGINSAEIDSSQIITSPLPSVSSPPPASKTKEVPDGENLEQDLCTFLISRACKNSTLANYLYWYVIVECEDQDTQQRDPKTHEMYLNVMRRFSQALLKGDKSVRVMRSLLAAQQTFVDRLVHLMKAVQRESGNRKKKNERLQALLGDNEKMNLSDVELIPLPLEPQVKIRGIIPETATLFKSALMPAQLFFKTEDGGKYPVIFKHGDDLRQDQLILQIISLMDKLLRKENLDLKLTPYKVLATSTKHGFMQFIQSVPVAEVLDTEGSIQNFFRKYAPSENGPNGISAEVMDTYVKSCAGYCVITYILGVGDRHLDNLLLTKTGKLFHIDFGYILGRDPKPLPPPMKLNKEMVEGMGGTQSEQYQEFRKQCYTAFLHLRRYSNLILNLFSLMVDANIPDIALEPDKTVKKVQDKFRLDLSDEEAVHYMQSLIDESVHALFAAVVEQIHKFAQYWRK

| IC50 | Percent Inhibition | SMILES |
| --- | --- | --- |
| < 10 nM | – | Cc1ncc(-c2ccnc(NC(=O)C3CC3(F)F)c2)cc1NS(=O)(=O)c1ccc(F)cc1F (racemic) [Compound I-16, (rac)-N-(5-{[(2,4-difluorophenyl)sulfonyl]amino}-6-methyl-3,4′-bipyridin-2′-yl)-2,2-difluorocyclopropanecarboxamide] |
| 10 to 50 nM | – | Cc1ncc(-c2ccnc(NC(=O)C3CC3(F)F)c2)cc1NS(=O)(=O)c1ccc(F)cc1F (single isomer, unassigned) [Compound I-267a, N-(5-{[(2,4-difluorophenyl)sulfonyl]amino}-6-methyl-3,4′-bipyridin-2′-yl)-2,2-difluorocyclopropanecarboxamide] |
| 10 to 50 nM | – | CC(=O)Nc1cc(-c2cnc(C)c(N3CC(N(C)C)CS3(=O)=O)c2)ccn1 (single isomer, unassigned) [Compound I-496, N-(5-(4-(dimethylamino)-1,1-dioxidoisothiazolidin-2-yl)-6-methyl-[3,4′-bipyridin]-2′-yl)acetamide] |
| 10 to 50 nM | 83% | Cc1ncc(-c2ccnc(NC(=O)C3CC3(F)F)c2)cc1NS(=O)(=O)N(C)C (single isomer, unassigned) [Compound I-498] |
| 10 to 50 nM | >99% | Cc1ncc(-c2ccnc(NC(=O)C3CC3(F)F)c2)cc1NS(=O)(=O)N(C)C (single isomer, unassigned) [Compound I-499] |
| < 10 nM | – | CC(=O)Nc1cc(-c2cnc(C)c(NS(=O)(=O)c3ccc(C(F)(F)F)nc3)c2)ccn1 [Compound I-1] |
| > 100 nM | – | CC(=O)Nc1cc(-c2cncc(C(=O)C3CC3)c2)ccn1 [Compound I-8, N-[5-(cyclopropylcarbonyl)-3,4′-bipyridin-2′-yl]acetamide] |
| < 10 nM | – | CC(=O)Nc1cc(-c2cnc(N)c(C(=O)N3CCCCC3)c2)ccn1 [Compound I-10, N-[6-amino-5-(piperidin-1-ylcarbonyl)-3,4′-bipyridin-2′-yl]acetamide] |
| < 10 nM | – | CC(=O)Nc1cc(-c2cnc(N)c(S(=O)(=O)NC34CC(C3)C4)c2)ccn1 [Compound I-11, N-[6-amino-5-(bicyclo[1.1.1]pent-1-ylsulfamoyl)-3,4′-bipyridin-2′-yl]acetamide] |
| < 10 nM | – | CC(=O)Nc1cc(-c2cncc(NS(=O)(=O)c3ccc(F)cc3F)c2)ccn1 [Compound I-12, N-(5-{[(2,4-difluorophenyl)sulfonyl]amino}-3,4′-bipyridin-2′-yl)acetamide] |
| 10 to 50 nM | – | CC(=O)Nc1cc(-c2cnc(N)c(C(=O)NCC3CC3)c2)ccn1 [Compound I-14, 2′-acetamido-6-amino-N-(cyclopropylmethyl)-3,4′-bipyridine-5-carboxamide] |
| 50 to 100 nM | – | CC(=O)Nc1cc(-c2cnc3cc[nH]c3c2)ccn1 [Compound I-17, N-[4-(1H-pyrrolo[3,2-b]pyridin-6-yl)pyridin-2-yl]acetamide] |
| 50 to 100 nM | – | CC(=O)Nc1cc(-c2cncc(N(C)S(C)(=O)=O)c2)ccn1 [Compound I-20, N-{5-[methyl(methylsulfonyl)amino]-3,4′-bipyridin-2′-yl}acetamide] |
| < 10 nM | – | CC(=O)Nc1cc(-c2cnc3ccn(S(=O)(=O)c4ccccc4)c3c2)ccn1 [Compound I-23, N-{4-[1-(phenylsulfonyl)-1H-pyrrolo[3,2-b]pyridin-6-yl]pyridin-2-yl}acetamide] |
| 10 to 50 nM | – | CC(=O)Nc1cc(-c2cnc(N(C)C)c(NS(=O)(=O)c3ccc(F)cc3F)c2)ccn1 [Compound I-25, N-[5-{[(2,4-difluorophenyl)sulfonyl]amino}-6-(dimethylamino)-3,4′-bipyridin-2′-yl]acetamide] |
| < 10 nM | – | CC(=O)Nc1cc(-c2cnc(C)c(NS(=O)(=O)c3cc(C)ccc3F)c2)ccn1 [Compound I-28, N-(5-{[(2-fluoro-5-methylphenyl)sulfonyl]amino}-6-methyl-3,4′-bipyridin-2′-yl)acetamide] |
| 10 to 50 nM | >99% | CNc1ncc(-c2ccnc(NC(C)=O)c2)cc1NS(=O)(=O)c1ccc(F)cc1F [Compound I-31, N-[5-{[(2,4-difluorophenyl)sulfonyl]amino}-6-(methylamino)-3,4′-bipyridin-2′-yl)acetamide] |
| 10 to 50 nM | – | CC(=O)Nc1cc(-c2cnc3ccn(S(C)(=O)=O)c3c2)ccn1 [Compound I-33, N-{4-[1-(methylsulfonyl)-1H-pyrrolo[3,2-b]pyridin-6-yl]pyridin-2-yl}acetamide] |
| < 10 nM | – | COC(=O)Nc1cc(-c2cnc(N)c(S(=O)(=O)C(C)C)c2)ccn1 [Compound I-34, methyl [6-amino-5-(isopropylsulfonyl)-3,4′-bipyridin-2′-yl]carbamate] |
| 10 to 50 nM | – | CC(=O)Nc1cc(-c2cnc(N)c(NCC3CC3)c2)ccn1 [Compound I-35, N-{6-amino-5-[(cyclopropylmethyl)amino]-3,4′-bipyridin-2′-yl}acetamide] |
| < 10 nM | – | COC(=O)Nc1cc(-c2cnc(N)c(S(=O)(=O)N3CCCC3)c2)ccn1 [Compound I-36, methyl [6-amino-5-(pyrrolidin-1-ylsulfonyl)-3,4′-bipyridin-2′-yl]carbamate] |
| 10 to 50 nM | – | COC(=O)Nc1cc(-c2cnc3[nH]ncc3c2)ccn1 [Compound I-38, Methyl [4-(1H-pyrazolo[3,4-b]pyridin-5-yl)pyridin-2-yl]carbamate] |
| < 10 nM | – | COc1ncc(-c2ccnc(NC(C)=O)c2)cc1S(=O)(=O)Nc1ccccc1 [Compound I-39, N-[6-methoxy-5-(phenylsulfamoyl)-3,4′-bipyridin-2′-yl]acetamide] |

The remaining lines, values behind:

| SMILES | IC50 | Percent Inhibition |
| --- | --- | --- |
| Cc1ncc(-c2ccnc(NC(=O)C3CC3(F)F)c2)cc1NS(=O)(=O)c1ccc(F)cc1F (single isomer, unassigned) [Compound I-267b, N-(5-{[(2,4-difluorophenyl)sulfonyl]amino}-6-methyl-3,4′-bipyridin-2′-yl)-2,2-difluorocyclopropanecarboxamide] | 10 to 50 nM | 94% |
| CC(=O)Nc1cc(-c2cnc(Cl)c(S(=O)(=O)NC(CO)c3ccccc3)c2)ccn1 (stereo in doubt) [Compound I-403, N-(6-chloro-5-{[(1R)-2-hydroxy-1-phenylethyl]sulfamoyl}-3,4′-bipyridin-2′-yl)acetamide] | > 100 nM | – |
| CC(=O)Nc1cc(-c2cnc3cnn(S(=O)(=O)C4CC4)c3c2)ccn1 [Compound I-2, N-{4-[1-(cyclopropylsulfonyl)-1H-pyrazolo[4,3-b]pyridin-6-yl]pyridin-2-yl}acetamide] | 10 to 50 nM | – |
| CC(=O)Nc1cc(-c2cnc(N)c(S(=O)(=O)Cc3ccc4ccccc4c3)c2)ccn1 [Compound I-3, N-{6-amino-5-[(2-naphthylmethyl)sulfonyl]-3,4′-bipyridin-2′-yl}acetamide] | 50 to 100 nM | – |
| Cc1cnc(NC(=O)C2CC2)cc1-c1cnc(C)c(NS(=O)(=O)c2ccc(F)cc2F)c1 [Compound I-4, N-(5-{[(2,4-difluorophenyl)sulfonyl]amino}-5′,6-dimethyl-3,4′-bipyridin-2′-yl)cyclopropanecarboxamide] | 10 to 50 nM | – |
| CC(=O)Nc1cc(-c2cnc(N)c(S(=O)(=O)Cc3ccccc3)c2)ccn1 [Compound I-6, N-[6-amino-5-(benzylsulfonyl)-3,4′-bipyridin-2′-yl]acetamide] | 10 to 50 nM | – |
| CC(=O)Nc1cc(-c2cncc(S(=O)(=O)N3CCC(F)(F)CC3)c2)ccn1 [Compound I-9, N-{5-[(4,4-difluoropiperidin-1-yl)sulfonyl]-3,4′-bipyridin-2′-yl}acetamide] | 10 to 50 nM | – |
| CC(=O)Nc1cc(-c2cncc(NC(=O)c3ccccc3)c2)ccn1 [Compound I-13, N-(2′-acetamido-3,4′-bipyridin-5-yl)benzamide] | > 100 nM | – |
| CC(=O)Nc1cc(-c2cnc(N)c(C(=O)N3CCCC3)c2)ccn1 [Compound I-15, N-[6-amino-5-(pyrrolidin-1-ylcarbonyl)-3,4′-bipyridin-2′-yl]acetamide] | 10 to 50 nM | – |
| CC(=O)Nc1cc(-c2cnc(C)c(NS(=O)(=O)c3cn(C)nc3C(F)(F)F)c2)ccn1 [Compound I-18, N-[6-methyl-5-({[1-methyl-3-(trifluoromethyl)-1H-pyrazol-4-yl]sulfonyl}amino)-3,4′-bipyridin-2′-yl]acetamide] | < 10 nM | – |
| CC(=O)Nc1cc(-c2cnc3c(c2)S(=O)(=O)N(C)CN3)ccn1 [Compound I-21, N-[4-(2-methyl-1,1-dioxido-3,4-dihydro-2H-pyrido[2,3-e][1,2,4]thiadiazin-7-yl)pyridin-2-yl]acetamide] | 10 to 50 nM | – |
| CNc1ncc(-c2ccnc(NC(C)=O)c2)cc1C(=O)N(C)C [Compound I-22, 2′-acetamido-N,N-dimethyl-6-(methylamino)-3,4′-bipyridine-5-carboxamide] | 10 to 50 nM | – |
| CC(=O)Nc1cc(-c2cnc(N)c(S(=O)(=O)N3CCOCC3)c2)ccn1 [Compound I-24, N-[6-amino-5-(morpholin-4-ylsulfonyl)-3,4′-bipyridin-2′-yl]acetamide] | < 10 nM | – |
| CCN(c1cc(-c2ccnc(NC(C)=O)c2)cnc1C)S(=O)(=O)C1CC1 [Compound I-26, N-{5-[(cyclopropylsulfonyl)(ethyl)amino]-6-methyl-3,4′-bipyridin-2′-yl}acetamide] | 50 to 100 nM | – |
| CCN(CC)C(=O)c1cc(-c2ccnc(NC(C)=O)c2)cnc1N [Compound I-27, 2′-acetamido-6-amino-N,N-diethyl-3,4′-bipyridine-5-carboxamide] | < 10 nM | – |
| CC(=O)Nc1cc(-c2cnc3c(c2)N(CC2CC2)S(=O)(=O)N3)ccn1 [Compound I-29, N-{4-[1-(cyclopropylmethyl)-2,2-dioxido-1,3-dihydro[1,2,5]thiadiazolo[3,4-b]pyridin-6-yl]pyridin-2-yl}acetamide] | 10 to 50 nM | – |
| CC(=O)Nc1cc(-c2cnc(C)c(NS(=O)(=O)c3ccc(Cl)cc3Cl)c2)ccn1 [Compound I-30, N-(5-{[(2,4-dichlorophenyl)sulfonyl]amino}-6-methyl-3,4′-bipyridin-2′-yl)acetamide] | < 10 nM | – |
| CC(=O)Nc1cc(-c2cnc(N)c(S(=O)(=O)N(C)c3ccccc3)c2)ccn1 [Compound I-37, N-{6-amino-5-[methyl(phenyl)sulfamoyl]-3,4′-bipyridin-2′-yl}acetamide] | < 10 nM | – |
| CC(=O)Nc1cc(-c2cnc3[nH]cc(S(=O)(=O)N(C)C)c3c2)ccn1 [Compound I-40, N-{4-[3-(dimethylsulfamoyl)-1H-pyrrolo[2,3-b]pyridin-5-yl]pyridin-2-yl}acetamide] | < 10 nM | – |
